In ChEMBL document CHEMBL1158144, “Cacalol derivatives from Roldana angulifolia” (J Nat Prod, 2006):

What was measured:
Assay type in all cases: functional, cell-based
HCT-15 = assay: Cytotoxicity against human HCT-15 cells
MCF7 = assay: Cytotoxicity against human MCF7 cells
SK-LU-1 = assay: Cytotoxicity against human SKLU1 cells
U-251 = assay: Cytotoxicity against human U251 cells
K562 = assay: Cytotoxicity against human K-562 cells
PC-3 = assay: Cytotoxicity against human PC-3 cells

Measured: IC50

COc1c2c(c(C=O)c3c(COC(C)=O)coc13)[C@@H](C)CC=C2
> 10 µM: HCT-15 | MCF7 | SK-LU-1 | U-251 | K562 | PC-3

COc1c2c(c(C=O)c3c(CO)coc13)[C@@H](C)CC=C2
> 10 µM: HCT-15 | MCF7 | SK-LU-1 | U-251 | K562 | PC-3

COc1c2c3c(c4c(COC(C)=O)coc14)C(=O)OC[C@H]3CC=C2 [ANGULIFOLIDE]
> 10 µM: HCT-15 | MCF7 | SK-LU-1 | U-251 | K562 | PC-3
